Data from paper PMC7242285, “JNJ-4178 (adafosbuvir, odalasvir, and simeprevir) in Japanese patients with chronic hepatitis C virus genotype 1 or 2 infection with or without compensated cirrhosis: the Phase IIa OMEGA-3 study” (Journal of Gastroenterology, 2020).
Where two headings read alike, the source gives them in different places.

Key:
[1] = OMEGA-3: plasma pharmacokinetics (sparse sampling and Week 4 intensive sub-study); format: in vivo, human (Japanese patients)
Protocol: Blood samples for the assessment of the plasma pharmacokinetics of adafosbuvir (and its metabolites ALS-022399 and ALS-022227), odalasvir, and simeprevir were collected in all patients pre-dose, between 2 and 4 h post-dose, and between 4 and 6 h post-dose at Weeks 2, 4, 6, and 8 (Cohort 2 only) and EOT (Weeks 8 or 12). An additional plasma sample was taken at any time during the Week-12 follow-up visit for measurement of odalasvir only.
Additional blood samples were also obtained at Week 4 in a subgroup of patients (planned: ≥ 6 patients per cohort) who consented to intensive pharmacokinetic sampling (pharmacokinetic sub-study). Blood samples for adafosbuvir (and its metabolites ALS-022399 and ALS-022227), odalasvir, and simeprevir plasma concentrations were collected pre-dose and at 1, 2, 3, 4, 6, 8, 10, 12, and 24 h post-dose.
Plasma concentrations of adafosbuvir, ALS-022399, ALS-022227, simeprevir, and odalasvir were determined using validated liquid chromatography–mass spectrometry methods. The LLOQ for adafosbuvir and odalasvir was 1.00 ng/mL, for ALS-022399 was 2.00 ng/mL, for ALS-022227 was 5.00 ng/mL, and for simeprevir was 20.0 ng/mL.
Descriptive statistics for plasma concentrations of adafosbuvir (and its metabolites), odalasvir, and simeprevir were calculated at each sampling time point. Pharmacokinetic parameters were derived by non-compartmental pharmacokinetic analysis of adafosbuvir (and its metabolites), odalasvir, and simeprevir in the pharmacokinetic sub-study using actual sampling time points and plasma concentrations obtained during intensive sampling at Week 4. Graphs of the mean plasma concentration–time profiles were produced. An exploratory graphical pharmacokinetic/pharmacodynamic analysis was performed by means of scatter plots of pharmacodynamic parameters (individual PR interval [mean of the triplicate ECG measurements] and change from baseline in PR interval [Day 1 was baseline]) versus odalasvir plasma concentrations.

[2] = OMEGA-3 Phase IIa study: adverse events and laboratory safety; format: in vivo, human (Japanese patients); details: given as part of JNJ-4178
Description: The study comprised a 6-week screening phase, an 8-week (Cohort 1: patients with no cirrhosis) or 12-week (Cohort 2: patients with compensated cirrhosis) open-label treatment phase, and a 24-week post-treatment follow-up period. Given that patients with HCV and compensated cirrhosis potentially have a higher safety risk than patients without compensated cirrhosis, dosing of Cohort 2 was only initiated after all safety data had been reviewed up to Week 4 for the first six patients in Cohort 1 by an independent Data Review Committee (Fig. 1). This study was conducted in accordance with the ethical principles that have their origin in the Declaration of Helsinki and that are consistent with Good Clinical Practices and applicable regulatory requirements. The study was approved by the relevant Institutional Review Board at each study center. All patients provided written, informed consent to participate.
Study drugs were administered orally with food at approximately the same time in the morning, each day.
(§1) The primary endpoint was safety, including but not limited to AEs, physical examination, vital signs, 12-lead ECGs, echocardiograms, and clinical laboratory results.
(§2) AEs were reported throughout the study from the time that informed consent to participate was received until completion of the last visit. Complete physical examination, vital signs assessments, and blood and urine sampling for clinical laboratory assessments (including hematological, serum chemistry, liver function, and urinalysis tests) were performed at screening and throughout the study. Triplicate ECGs and echocardiography were also performed at screening and during the study.
The safety analysis was performed on the Safety Set (all patients who received at least one dose of study drug). Safety data were analyzed descriptively. AEs were coded using the Medical Dictionary for Regulatory Activities (version 20.0). Laboratory abnormalities were assessed according to the World Health Organization Toxicity Grading Scale.

HCV GTs 1–6 = tested on: HCV GTs 1–6; parameters: method as in doi:10.1016/S0168-8278(17)31470-8, PMID 30070722, PMID 30325939; details: cited from earlier work
HCV GT3 [3] = tested on: HCV GT3; parameters: method as in PMID 30693573; details: HCV GT3 (data on file); cited from earlier work
[4] = tested on: HCV GT1, GT2, GT4, GT5, and GT6; parameters: method as in PMID 30693573, doi:10.1016/S0168-8278(12)60857-5; details: cited from earlier work
[5] = parameters: method as in PMID 29736243; details: single-dose pharmacokinetic studies (data on file) ref 24; cited from earlier work
[6] = OMEGA-3: ECG and echocardiography; format: in vivo, human (Japanese patients); details: graphical evaluation
Description: as §1, §2
Descriptive statistics for plasma concentrations of adafosbuvir (and its metabolites), odalasvir, and simeprevir were calculated at each sampling time point. Pharmacokinetic parameters were derived by non-compartmental pharmacokinetic analysis of adafosbuvir (and its metabolites), odalasvir, and simeprevir in the pharmacokinetic sub-study using actual sampling time points and plasma concentrations obtained during intensive sampling at Week 4. Graphs of the mean plasma concentration–time profiles were produced. […]

CYP3A = details: cited from earlier work
HCV GT3 [7] = tested on: HCV GT3; parameters: method as in PMID 22326470; details: cited from earlier work
[8] = tested on: HCV GT1, GT2, GT4, GT5, and GT6; parameters: method as in PMID 22326470; details: cited from earlier work
CYP1A2 = tested on: CYP1A2; parameters: method as in PMID 26453968; details: cited from earlier work
[9] = Cohort 1: no cirrhosis (N = 22), 8 weeks
[10] = Cohort 2: compensated cirrhosis (N = 11), 12 weeks

## C[C@]1(O)[C@H](n2ccc(=O)[nH]c2=O)O[C@](F)(CO)[C@H]1O [ALS-022227]
[1]; human, in vivo
  AUC24h, mean (SD): 6688 (3116) ng.h/mL
  Cmax, mean (SD): 974 (554) ng/mL
[1]; in vivo
  Steady state judged from Ctrough levels: steady-state exposure had been reached by Week 2

## CC(C)OC(=O)[C@H](C)N[P@](=O)(OC[C@@]1(F)O[C@@H](n2ccc(=O)[nH]c2=O)[C@](C)(O)[C@@H]1O)Oc1ccccc1 [adafosbuvir]
[1]; all visits, both patient cohorts, LLOQ 1.00 ng/mL adafosbuvir, 2.00 ng/mL ALS-022399
  Plasma trough concentration (Ctrough): below the limit of quantification
[1]; human, in vivo, plasma, Week 4, intensive sampling, Cohort 2 (n=2), first value listed, read-out: AUC24h, individual value
  AUC(0-t): 3020 ng·h/mL
[1]; human, in vivo, plasma, Week 4, intensive sampling, Cohort 2 (n=2), first value listed, read-out: Cmax, individual value
  Cmax: 964 ng/mL
[1]; human, in vivo, plasma, Week 4, intensive sampling, Cohort 2 (n=2), second value listed, read-out: AUC24h, individual value
  AUC(0-t): 3030 ng·h/mL
[1]; human, in vivo, plasma, Week 4, intensive sampling, Cohort 2 (n=2), second value listed, read-out: Cmax, individual value
  Cmax: 1430 ng/mL
[1]; human, in vivo, plasma, Week 4, intensive sampling, JNJ-4178 dosing, Cohort 1: no cirrhosis (n=8), read-out: AUC24h, mean (SD)
  AUC(0-t): 1660 ng·h/mL
[1]; human, in vivo, plasma, Week 4, intensive sampling, JNJ-4178 dosing, Cohort 1: no cirrhosis (n=8), read-out: Cmax, mean (SD)
  Cmax: 903 ng/mL
[2]; [9]
  Treatment-related AE at least possibly related to the named drug: 6 (27.3) n (%)
[2]; [10]
  Treatment-related AE at least possibly related to the named drug: 3 (27.3) n (%)
[2]; Overall (N = 33)
  Treatment-related AE at least possibly related to the named drug: 9 (27.3) n (%)
HCV GTs 1–6
  Antiviral activity: potent antiviral activity

## COC(=O)N[C@H](C(=O)N1[C@H](c2nc3cc(-c4cc5ccc4CCc4ccc(c(-c6ccc7[nH]c([C@@H]8C[C@@H]9CCCC[C@@H]9N8C(=O)[C@@H](NC(=O)OC)C(C)C)nc7c6)c4)CC5)ccc3[nH]2)C[C@@H]2CCCC[C@@H]21)C(C)C [odalasvir]
HCV GT3 [3]
  Activity: nanomolar
[4]
  Potency: picomolar
[1]; human, in vivo
  AUC24h, mean (SD): 6320 (1898) ng.h/mL
  Cmax, mean (SD): 342 (113) ng/mL
  Maximum Cmax among pharmacokinetic sub-study patients: 546 ng/mL
[1]; in vivo
  Ctrough levels in Cohort 2 compared with Cohort 1: modestly lower
  Highest pre-dose concentration among patients: 474 to 889 ng/mL
  Steady state judged from Ctrough levels: steady-state conditions had not entirely been reached yet at Week 4
[2]; [9]
  Treatment-related AE at least possibly related to the named drug: 9 (40.9) n (%)
[2]; [10]
  Treatment-related AE at least possibly related to the named drug: 4 (36.4) n (%)
[2]; Overall (N = 33)
  Treatment-related AE at least possibly related to the named drug: 13 (39.4) n (%)
[5]
  Terminal elimination half-life: approximately 250 h
[6]
  Relationship between PR interval (absolute and change from baseline) and plasma concentrations: no apparent relationship

## COc1ccc2c(O[C@@H]3C[C@H]4C(=O)N[C@]5(C(=O)NS(=O)(=O)C6CC6)C[C@H]5/C=C\CCCCN(C)C(=O)[C@@H]4C3)cc(-c3nc(C(C)C)cs3)nc2c1C [simeprevir]
[1]; human, in vivo
  Ctrough, max (between-patient variability): 6090 ng/mL
  Ctrough, min (between-patient variability): 92.2 ng/mL
  Steady state judged from Ctrough levels: steady-state exposure had been reached by Week 2
[1]; human, in vivo, AUC24h, mean (SD)
  AUC(0-t): 26900 ng·h/mL
[1]; human, in vivo, Cmax, mean (SD)
  Cmax: 2200 ng/mL
[1]; in vivo
  Ctrough levels in Cohort 2 compared with Cohort 1: higher
CYP3A
  Metabolism: metabolized by cytochrome P450 (CYP) 3A
CYP3A; intestinal (not hepatic) CYP3A
  Inhibition of CYP3A: mild inhibitor
HCV GT3 [7]
  Antiviral activity in infected patients: no antiviral activity
[2]; [9]
  Treatment-related AE at least possibly related to the named drug: 6 (27.3) n (%)
[2]; [10]
  Treatment-related AE at least possibly related to the named drug: 2 (18.2) n (%)
[2]; Overall (N = 33)
  Treatment-related AE at least possibly related to the named drug: 8 (24.2) n (%)
[8]
  Antiviral activity in infected patients: demonstrated antiviral activity
CYP1A2
  Inhibition of CYP1A2: mild, but not clinically relevant, inhibitor
